Type in all cases: in vivo
The test system of one data set is Meloidogyne incognita. Briefly: Root infestation on agar plate: root knot count on potato microplant roots. Particulars: 60 μM in agar, galls counted 5 weeks after inoculation, four replicates. How it is done: 9 cm petri dishes were filled with a 15 ml agar. One stem cutting of a potato microplant (Solanum tuberosum cv. Desirée) was placed on top of the agar layer. After 2 to 3 weeks of incubation at 20° C., the root system was sufficiently developed to be inoculated.
The test compounds (see Table 1) were added 2 days before inoculation by way of spreading a 2 ml DMSO-solution with the compound over the agar and allowing the compound to diffuse in the agar during two days at constant temperature of 20° C. During incubation, the plates are protected from light in a dark incubator. The resulting concentration of each compound in each agar plate was 60 μM.
After incubation, approximately 400 axenic juveniles of Meloidogyne incognita species were added to the plate.
The plates were incubated in the dark at a constant temperature of 20° C. and 5 weeks after inoculation the number of galls formed on the roots were determined by counting. Also any toxic effect of the test compounds on the roots was recorded. 8 weeks after inoculation the plates were stored at low temperature.
Each compound was tested in four replicates. Positive controls were treated with different concentrations of Aldicarb, a known nematicide. Negative controls included 5 replicates of double negative controls (no compound, no nematode), 5 replicates of single negative controls (no compound, with nematode) and 5 replicates of DMSO controls (DMSO solution, with nematode).

For data set [1], the system named is Meloidogyne incognita nematodes. Briefly: Pot Assay 1: Meloidogyne infection of potato, egg masses/galls on roots. The protocol:
500 ml clay pots were filled with 400 ml of silver sand. One tuber of potato ( Solanum tuberosum cv. Bintje) was planted in the sand. After 2 to 3 weeks incubation, the potato plant was sufficiently developed to be inoculated.
Plants were grown under the usual standard greenhouse conditions at 14° C.-18° C., with 16 hours light and 8 hours dark and 80-90% relative humidity. The pots were watered using individual drippers and fertilizers were added under the form of macro- and micro nutrients according to plant growth requirements. When needed, the plants were sprayed with fungicides and insecticides.
The compounds as described herein were added one day before inoculation. The compounds were dissolved in a 20 ml DMSO-solution and spread over the sand surface. The final concentration is calculated under the assumption that the compound is diffused entirely in the pot. This process occurred during two days at the normal greenhouse conditions described above.
After compound incubation, approximately 1500 juveniles of Meloidogyne incognita nematodes were added to the pots.
The pots were incubated at the described greenhouse conditions until nematode development was completed. At week 8 after inoculation the number of galls formed on the roots was counted after washing off the sandy substrate. Also the effect of the compound on the plant development was recorded.
Every compound was tested in three replicates. Positive control plants were treated with different concentrations of aldicarb, a known nematicide. Negative controls involved 12 replicates of double negative controls (no compound, no nematode), 12 replicates of single negative controls (no compound, no DMSO, with nematode), 24 replicates of DMSO controls (DMSO solution, with nematode).
As assessment of the root development was taken into account.

For a further data set, the system named is Meloidogyne nematodes. Briefly: Pot Assay 2: Meloidogyne infection of tomato, % infestation of roots. Particulars: tomato in infested soil. The protocol: The soil used in this assay originated from a plot, heavily infested with Meloidogyne nematodes. Part of this soil was sterilized by autoclaving and was used as negative control. Sandy soil, which was not infested with nematodes, was pursued from a commercial source.
Plastic seedling trays with wells of 60 ml capacity were filled with about 40 ml of soil per well. 5 ml of water per well was used for irrigation.
Compounds as described herein were tested in 4 different rates and with 12 replicates for each concentration. The compounds as described herein were stored as dry films of 4 different concentrations. The day of the application of the compounds, all the dry films were dissolved in 60 ml water and poured into the 12 replicate wells: 5 ml per well. Every tray of 12 wells was identified with a label, indicating compound and concentration used. The 4 final rates in the soil of the tested compound were approximately 0.05 mg, 0.20 mg, 1 mg and 5 mg. These amounts translate to field application rates respectively as 30, 120, 600 and 3000 g per hectare.
3-5 days after application of the tested compound, tomato seeds (cv. Rio Grande) were sown in the wells by hand, at about 2 cm deep. A light cover of vermiculite on the surface was used to avoid dehydration. Plants were irrigated by micro-nebulization 3-4 times per week at a rate of 3 L/m^2, weeded by hand and treated with fertilizers, fungicide and insecticides when needed.
Their resistance against nematode infection was monitored and the efficacy of compounds described herein as a nematicide was measured. Furthermore the phytotoxicity of the test compounds was evaluated.
Efficacy of the compounds described herein as nematicide was measured by giving the roots a percentage of infestation measured as follows. Plants were grown to reach good development of the roots, which corresponds to plants grown to about 10 cm high at about one month after emergence. After removal of the soil from the roots by rinsing with water, the roots were visually inspected and root galls were counted on 4 plants of the set of 12 replicate plants.
Positive control plants were treated with a 10 micromolar concentration of oxamyl (Vydate, 10% SL; the rate of 10 micromolar corresponds to a commercial rate of 20 l/ha), a known nematicide. Negative controls involved double negative controls (no compound, sterile soil), and single negative controls (no compound, with nematode infested soil).

The subject of another data set is tomato (cv. Rio Grande). Briefly: Pot Assay 2: root development (vigor of roots) of tomato. The note with it: visual value 0 to 10 (10 equal to control). The protocol:
Phytotoxicity of compounds as described herein when used as a nematicide, was measured as follows. […] At that moment, plant emergence was assessed for the plants treated with any of the compounds as described herein, by counting the number of plants per compound-concentration.
Vigor of roots was also assessed once the plants are well established so as not to loose plants. To assess vigor of the plants or roots, a visual value ranging from 0 to 10 (0 no vigor, 10 equal to control) was scored per compound-concentration.

The mark [2] stands for this setting: 50 μM, potato in pot, week 8 after inoculation.
The mark [3] stands for this setting: highest concentration of the reference compound.

The values below come from patent publication US20090209605A1, “NEMATICIDAL COMPOSITIONS” (Devgen N.V., priority 2004, published 2009).

Turning to `CC(C)=CC1C(C(=O)OCN2C(=O)C3=C(CCCC3)C2=O)C1(C)C` (mixture of isomers) [LIX], the “Root knot count, average of the replicate counts” value (from here on “Root knot count, average”) in the data set with Meloidogyne incognita came to 19.

Take `CC(C)=CC1C(C(=O)OCc2coc(Cc3ccccc3)c2)C1(C)C` (mixture of isomers) [LVII]: the “Root knot count, average” value with Meloidogyne incognita was 8.5.

Turning to `Cc1c(F)c(F)c(COC(=O)C2C(C=C(Cl)C(F)(F)F)C2(C)C)c(F)c1F` (racemic) [LVIII], the “Root knot count, average” value in the data set on Meloidogyne incognita is 18.25. Further, in data set [1] (setting [2]), the “number of egg masses (galls) on roots, Replicate 1” value was 60; the “number of egg masses (galls) on roots, Replicate 2” value is given as 100; the “number of egg masses (galls) on roots, Replicate 3” value was 30.

As to `CNC1=C(c2cccc(C(F)(F)F)c2)C(=O)C(c2ccccc2)O1` (racemic) [XV], in the data set with Meloidogyne incognita, the “Root knot count, average” value is listed as 18.

As to `CNC(=O)O/N=C/C(C)(C)SC` [Aldicarb, reference compound], in data set [1] (setting [3]), the “egg mass development (number of egg masses)” value is listed as 41 and the “reduction of the egg mass development, fraction of control” value is “about ⅓”. Besides, the “effect on the nematode development” value in data set [1] (three lowest concentrations of the reference compound) is reported as “no effect”.

For `CCC(N)P(=O)(O)O` (centres unmarked) [II], the “Root knot count, average” value in the data set with Meloidogyne incognita came out at 6.5. Moreover, the “% INF. (% Infestation)” value with Meloidogyne nematodes (RATE 0.05 mg), with Meloidogyne nematodes (RATE 0.2 mg), in the data set on Meloidogyne nematodes (RATE 1 mg) and with Meloidogyne nematodes (RATE 5 mg) was 0.0% each time. Further, the “ROOT DEV.” value in the data set on tomato (cv. Rio Grande) (RATE 0.05 mg) is given as 6.7; with tomato (cv. Rio Grande) (RATE 0.2 mg) it was 7.3; with tomato (cv. Rio Grande) (RATE 1 mg), 7.3; with tomato (cv. Rio Grande) (RATE 5 mg), 7.9.

`N#Cc1c(Cl)c(Cl)c(Cl)c(C#N)c1Cl` [IV]: the “Root knot count, average” value in the data set on Meloidogyne incognita amounted to 11.5.

`CCNC(=O)NC(=O)C(C#N)=NOC` [LII]: the “Root knot count, average” value with Meloidogyne incognita is recorded as 15.5.

For the molecule `Cc1cccc(C)c1N(C(=O)CCl)C1CCOC1=O` (centres unmarked) [LIV], the “Root knot count, average” value with Meloidogyne incognita was 14.5. Also, the “% INF. (% Infestation)” value with Meloidogyne nematodes (RATE 0.05 mg) came to 5.0%; in the data set with Meloidogyne nematodes (RATE 0.2 mg), 5.0%; with Meloidogyne nematodes (RATE 1 mg) it was 3.8%; in the data set with Meloidogyne nematodes (RATE 5 mg), 2.5%. In addition, the “ROOT DEV.” value in the data set on tomato (cv. Rio Grande) (RATE 0.05 mg) is 7.5; in the data set on tomato (cv. Rio Grande) (RATE 0.2 mg), 7.2; in the data set with tomato (cv. Rio Grande) (RATE 1 mg), 7.6; in the data set with tomato (cv. Rio Grande) (RATE 5 mg), 6.6.

For the molecule `O=C(NC(=O)c1c(F)cccc1F)Nc1cc(Cl)c(Oc2ncc(C(F)(F)F)cc2Cl)c(Cl)c1` [LI], in the data set on Meloidogyne incognita, the “Root knot count, average” value stood at 17.5.

For `COCC(=O)N(c1c(C)cccc1C)N1CCOC1=O` [LV], in the data set on Meloidogyne incognita, the “Root knot count, average” value was 17.75.
